Assay results published in US10457687B2, “Aminoacid derivatives, a process for their preparation and pharmaceutical compositions containing them” (LES LABORATOIRES SERVIER, priority 2015, dated 2019).

Biological target: Mcl-1 protein (Homo sapiens, UniProt Q07820)
Assay: Inhibition of Mcl-1 by the fluorescence polarisation technique (Method 1 or Method 2)
Type: binding
Settings: for IC50: fluorescence polarisation, Fluorescein labelled ligand, Method 1 (not underlined) or Method 2 (underlined), read-out: IC50 (μM) Mcl-1 FP; for percentage fluorescence polarisation inhibition, Mcl-1 FP: partial inhibitors
Experimental: The relative binding potency of each compound was determined via Fluorescence Polarisation (FP).
An 11 point serial dilution of each compound was prepared in DMSO and 2 μl transferred into flat bottomed, low binding, 384-well plate (final DMSO concentration 5%). 38 μl of buffer (10 mM 4-(2-hydroxyethyl)-1-piperazineethanesulfonic acid [HEPES], 150 mM NaCl, 0.05% Tween 20, pH 7.4), containing the Fluorescein labelled ligand (final concentration 1 nM) and Mcl-1 protein (final concentration 5 nM) was then added.
An 11 point serial dilution of each compound was prepared in DMSO and 2 μl transferred into flat bottomed, low binding, 384-well plate (final DMSO concentration 5%). 38 μl of buffer (20 mM Na2HPO4, 1 mM EDTA, 50 mM NaCl, pH 7.4), containing the Fluorescein labelled ligand (final concentration 10 nM) and Mcl-1 protein (final concentration 10 nM) was then added.

Sequence of Mcl-1 protein (Q07820 whole entry): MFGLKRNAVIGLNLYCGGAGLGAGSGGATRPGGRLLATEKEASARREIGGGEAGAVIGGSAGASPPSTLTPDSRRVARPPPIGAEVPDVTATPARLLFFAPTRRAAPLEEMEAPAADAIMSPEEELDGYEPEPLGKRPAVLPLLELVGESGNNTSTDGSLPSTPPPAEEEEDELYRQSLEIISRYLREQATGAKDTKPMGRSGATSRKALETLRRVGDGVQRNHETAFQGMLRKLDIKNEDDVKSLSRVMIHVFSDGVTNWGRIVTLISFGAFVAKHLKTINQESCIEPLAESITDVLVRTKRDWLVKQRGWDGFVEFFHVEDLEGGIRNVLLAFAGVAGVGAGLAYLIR

| Structure (SMILES) | IC50 | further results |
| --- | --- | --- |
| CCc1sc2ncnc(N[C@@H](Cn3cccn3)C(=O)O)c2c1-c1cccc(Cl)c1C (racemic) [Example 110, N-[5-(3-chloro-2-methylphenyl)-6-ethylthieno[2,3-d]pyrimidin-4-yl]-3-(1H-pyrazol-1-yl)alanine] | 0.839 µM | – |
| CCc1sc2ncnc(N[C@H](Cc3ccccc3)C(=O)O)c2c1-c1cccc2cc[nH]c12 (single isomer, unassigned) [Example 71, N-[6-ethyl-5-(1H-indol-7-yl)thieno[2,3-d]pyrimidin-4-yl]-D-phenylalanine] | 39 µM | – |
| CCc1sc2ncnc(N[C@H](Cc3ccccc3)C(=O)O)c2c1-c1cccc2cc[nH]c12 (single isomer, unassigned) [Example 72, N-[6-ethyl-5-(1H-indol-7-yl)thieno[2,3-d]pyrimidin-4-yl]-D-phenylalanine] | 12 µM | – |
| CCc1sc2ncnc(N[C@@H](C(=O)O)c3ccccc3)c2c1-c1cccc2ccccc12 (single isomer, unassigned) [Example 160] | 11.7 µM | – |
| CCc1sc2ncnc(N[C@@H](C(=O)O)c3ccccc3)c2c1-c1cccc2ccccc12 (single isomer, unassigned) [Example 161] | 12.6 µM | – |
| CCc1sc2ncnc(N[C@H](Cc3ccccc3C)C(=O)O)c2c1-c1cccc2ccccc12 (single isomer, unassigned) [Example 167, N-[6-ethyl-5-(naphthalen-1-yl)thieno[2,3-d]pyrimidin-4-yl]-2-methyl-D-phenylalanine] | 1.15 µM | – |
| CCc1sc2ncnc(N[C@H](Cc3ccccc3C)C(=O)O)c2c1-c1cccc2ccccc12 (single isomer, unassigned) [Example 168, N-[6-ethyl-5-(naphthalen-1-yl)thieno[2,3-d]pyrimidin-4-yl]-2-methyl-D-phenylalanine] | 4.78 µM | – |
| CCc1sc2ncnc(N[C@H](Cc3cccc4ccccc34)C(=O)O)c2c1-c1cccc2ccccc12 (single isomer, unassigned) [Example 186, N-[6-ethyl-5-(naphthalen-1-yl)thieno[2,3-d]pyrimidin-4-yl]-3-naphthalen-1-yl-D-alanine] | 7.88 µM | – |
| CCc1sc2ncnc(N[C@H](Cc3cccc4ccccc34)C(=O)O)c2c1-c1cccc2ccccc12 (single isomer, unassigned) [Example 187, N-[6-ethyl-5-(naphthalen-1-yl)thieno[2,3-d]pyrimidin-4-yl]-3-naphthalen-1-yl-D-alanine] | 1.39 µM | – |
| CCc1sc2ncnc(N[C@@H](C(=O)O)c3ccccc3-c3ccccc3)c2c1-c1cccc2ccccc12 (single isomer, unassigned) [Example 188] | 21.3 µM | – |
| CCc1sc2ncnc(N[C@@H](C(=O)O)c3cccc(-c4ccccc4)c3)c2c1-c1cccc2ccccc12 (single isomer, unassigned) [Example 189] | 8.33 µM | – |
| CC(C)c1sc2ncnc(N[C@H](Cc3ccccc3)C(=O)O)c2c1-c1cccc2ccccc12 (single isomer, unassigned) [Example 201, N-[5-(naphthalen-1-yl)-6-(propan-2-yl)thieno[2,3-d]pyrimidin-4-yl]-D-phenylalanine] | 0.136 µM | – |
| CC(C)c1sc2ncnc(N[C@H](Cc3ccccc3)C(=O)O)c2c1-c1cccc2ccccc12 (single isomer, unassigned) [Example 202, N-[5-(naphthalen-1-yl)-6-(propan-2-yl)thieno[2,3-d]pyrimidin-4-yl]-D-phenylalanine] | 0.751 µM | – |
| CC(O)c1sc2ncnc(N[C@H](Cc3ccccc3)C(=O)O)c2c1-c1cccc2ccccc12 (single isomer, unassigned) [Example 203, N-[6-(1-hydroxyethyl)-5-(naphthalen-1-yl)thieno[2,3-d]pyrimidin-4-yl]-D-phenylalanine] | – | percentage fluorescence polarisation inhibition, Mcl-1 FP (@ 100 μM test compound, 100 µM): 71.85% @ 100 μM |
| CC(O)c1sc2ncnc(N[C@H](Cc3ccccc3)C(=O)O)c2c1-c1cccc2ccccc12 (single isomer, unassigned) [Example 204, N-[6-(1-hydroxyethyl)-5-(naphthalen-1-yl)thieno[2,3-d]pyrimidin-4-yl]-D-phenylalanine] | – | percentage fluorescence polarisation inhibition, Mcl-1 FP (@ 100 μM test compound, 100 µM): 44.8% @ 100 μM |
| CC(O)c1sc2ncnc(N[C@H](Cc3ccccc3)C(=O)O)c2c1-c1cccc2ccccc12 (single isomer, unassigned) [Example 205, N-[6-(1-hydroxyethyl)-5-(naphthalen-1-yl)thieno[2,3-d]pyrimidin-4-yl]-D-phenylalanine] | – | percentage fluorescence polarisation inhibition, Mcl-1 FP (@ 100 μM test compound, 100 µM): 26.2% @ 100 μM |
| CC(O)c1sc2ncnc(N[C@H](Cc3ccccc3)C(=O)O)c2c1-c1cccc2ccccc12 (single isomer, unassigned) [Example 206, N-[6-(1-hydroxyethyl)-5-(naphthalen-1-yl)thieno[2,3-d]pyrimidin-4-yl]-D-phenylalanine] | 8.84 µM | – |
| O=C(O)[C@@H](Cc1ccccc1)Nc1ncnc2sc(C(F)F)c(-c3cccc4ccccc34)c12 (single isomer, unassigned) [Example 207, N-[6-(difluoromethyl)-5-(naphthalen-1-yl)thieno[2,3-d]pyrimidin-4-yl]-D-phenylalanine] | 0.136 µM | – |
| O=C(O)[C@@H](Cc1ccccc1)Nc1ncnc2sc(C(F)F)c(-c3cccc4ccccc34)c12 (single isomer, unassigned) [Example 208, N-[6-(difluoromethyl)-5-(naphthalen-1-yl)thieno[2,3-d]pyrimidin-4-yl]-D-phenylalanine] | 0.632 µM | – |
| CCc1sc2ncnc(N[C@H](CC3CCCCC3)C(=O)O)c2c1-c1cccc2[nH]ccc12 (single isomer, unassigned) [Example 242, 3-cyclohexyl-N-[6-ethyl-5-(1H-indol-4-yl)thieno[2,3-d]pyrimidin-4-yl]-D-alanine] | 0.091 µM | – |
| CCc1sc2ncnc(N[C@H](CC3CCCCC3)C(=O)O)c2c1-c1cccc2[nH]ccc12 (single isomer, unassigned) [Example 243, 3-cyclohexyl-N-[6-ethyl-5-(1H-indol-4-yl)thieno[2,3-d]pyrimidin-4-yl]-D-alanine] | 0.073 µM | – |
| COc1ccccc1-c1nccc(COc2ccccc2CC(Nc2ncnc3sc(-c4ccc(F)cc4)c(-c4ccc(OCCN5CCN(C)CC5)c(Cl)c4C)c23)C(=O)O)n1 [Example 7, N-[(5Sa)-5-{3-chloro-2-methyl-4-[2-(4-methylpiperazin-1-yl)ethoxy]phenyl}-6-(4-fluorophenyl)thieno[2,3-d]pyrimidin-4-yl]-2-{[2-(2-methoxyphenyl)pyrimidin-4-yl]methoxy}-D-phenylalanine] | 0.008 µM | – |
| CCCCn1nccc1COc1ccccc1CC(Nc1ncnc2sc(-c3ccc(F)o3)c(-c3ccc(OCCN4CCN(C)CC4)c(Cl)c3C)c12)C(=O)O [Example 24, 2-[(1-butyl-1H-pyrazol-5-yl)methoxy]-N-[(5Sa)-5-{3-chloro-2-methyl-4-[2-(4-methylpiperazin-1-yl)ethoxy]phenyl}-6-(5-fluorofuran-2-yl)thieno[2,3-d]pyrimidin-4-yl]-D-phenylalanine] | 0.008 µM | – |
| Cc1c(-c2c(-c3ccsc3)sc3ncnc(NC(Cc4ccccc4F)C(=O)O)c23)ccc(OCCN2CCN(C)CC2)c1Cl [Example 33, N-[(5Ra)-5-{3-chloro-2-methyl-4-[2-(4-methylpiperazin-1-yl)ethoxy]phenyl}-6-(thiophen-3-yl)thieno[2,3-d]pyrimidin-4-yl]-2-fluoro-D-phenylalanine] | – | percentage fluorescence polarisation inhibition, Mcl-1 FP (@ 10 μM test compound): 54.9% @ 10 μM |
| CC#Cc1sc2ncnc(NC(Cc3ccccc3OCc3ccnc(-c4ccccc4OC)n3)C(=O)O)c2c1-c1ccc(OCCN2CCN(C)CC2)c(Cl)c1C [Example 45, N-[(5Sa)-5-{3-chloro-2-methyl-4-[2-(4-methylpiperazin-1-yl)ethoxy]phenyl}-6-(prop-1-yn-1-yl)thieno[2,3-d]pyrimidin-4-yl]-2-{[2-(2-methoxyphenyl)pyrimidin-4-yl]methoxy}-D-phenylalanine] | 0.005 µM | – |
| CCc1sc2ncnc(NC(Cc3ccccc3)C(=O)O)c2c1-c1cc(Cl)c(O)c(Cl)c1C [Example 52, N-[(5Ra)-5-(3,5-dichloro-4-hydroxy-2-methylphenyl)-6-ethylthieno[2,3-d]pyrimidin-4-yl]-D-phenylalanine] | 0.301 µM | – |
| CCc1sc2ncnc(NC(Cc3ccccc3)C(=O)O)c2c1-c1cc(Cl)c(O)c(Cl)c1C [Example 53, N-[(5Sa)-5-(3,5-dichloro-4-hydroxy-2-methylphenyl)-6-ethylthieno[2,3-d]pyrimidin-4-yl]-D-phenylalanine] | 0.02 µM | – |
| CCc1sc2ncnc(NC(Cc3ccccc3)C(=O)O)c2c1-c1cc(Cl)c(OCCN2CCN(C)CC2)c(Cl)c1C [Example 54, N-((5Sa)-5-{3,5-dichloro-2-methyl-4-[2-(4-methylpiperazin-1-yl)ethoxy]phenyl}-6-ethylthieno[2,3-d]pyrimidin-4-yl)-D-phenylalanine] | 0.541 µM | – |
| CCc1sc2ncnc(NC(Cc3ccccc3)C(=O)O)c2c1-c1cc(Cl)c(OCCN2CCN(C)CC2)c(Cl)c1C [Example 55, N-((5Ra)-5-{3,5-dichloro-2-methyl-4-[2-(4-methylpiperazin-1-yl)ethoxy]phenyl}-6-ethylthieno[2,3-d]pyrimidin-4-yl)-D-phenylalanine] | 8.84 µM | – |
| CCc1sc2ncnc(NC(Cc3ccccc3)C(=O)O)c2c1-c1ccc(OCCO)c(Cl)c1C [Example 56, N-{(5Sa)-5-[3-chloro-4-(2-hydroxyethoxy)-2-methylphenyl]-6-ethylthieno[2,3-d]pyrimidin-4-yl}-D-phenylalanine] | 0.019 µM | – |
